The values that follow come from patent US7741352B2, “KCNQ channel modulating compounds and their pharmaceutical use” (Neurosearch A/S, priority 2003, dated 2010).

For the first data set, the target named is T1, human KCNQ4 channel (Homo sapiens, UniProt P56696).
T1 construct: expressed in transfected cells
In words: Electrophysiological determination: whole-cell patch-clamp of voltage-activated KCNQ current. Format: cell-based. The conditions noted are these: HEK293 cell line stably expressing human KCNQ4; current at end of step to −30 mV; baseline current defined as 100%; test concentration not given. The protocol:
KCNQ channels constitute a subfamily of the voltage-dependent potassium (K) channels. Five members of this family have been cloned (1-5) and they have been heterologously expressed in various homo- and heteromeric combinations. The ionic current through the channels is recorded in the whole-cell mode of the patch-clamp technique. The KCNQ currents are activated by a depolarising voltage step and it is investigated whether the test compound change the amount of basal current. Compounds that induce an increase in the voltage-activated current are called activators and the effect obtained by these activators is described as a percentage increase in baseline current at a given concentration.
A HEK293 cell line stably expressing the human KCNQ4 channel was obtained as described by Søgaard et al. [Søgaard R, Ljungstrøm T. Pedersen K A, Olesen S-P, Jensen B S: KCNQ4 channels expressed in mammalian cells: Functional characteristics and pharmacology; Am. J. Phys. 2000 280 C859-C866].
Experiments are carried out on a patch-clamp set-up. Cells plated on cover slips (Ø3.5 mm) are placed in a 15 μl perfusion chamber (flow rate ˜1 ml/min) mounted on an IMT-2 or IX-70 microscope equipped with Nomarski or Hoffmann optics. The microscope is placed on a vibration-free table in a grounded Faraday cage. All experiments are performed at room temperature (20-22° C.). The EPC-9 patch-clamp amplifier (HEKA-electronics, Lambrecht, Germany) is connected to a Macintosh computer via an ITC16 interface. Data are stored directly on the hard disk and analysed using IGOR software (Wavemetrics, Lake Oswego, USA).
The whole-cell configuration of the patch clamp technique is applied. In short: The Up of a borosilicate pipette (resistance 24 MΩ) is gently (remote control system) placed on the cell membrane. Light suction results in a giga seal (pipette resistance increases to more than 1 GΩ) and the cell membrane is then ruptured by more powerful suction. Cell capacitance is electronically compensated and the resistance between the pipette and the cell interior (the series resistance, Rs) is measured and compensated for. Usually the cell capacitance ranges from 5 to 20 pF (depending on cell size) and the series resistance is in the range 3 to 6 MΩ. Rs- as well as capacitance compensation are updated during the experiments (before each stimulus). All experiments with drifting Rs-values are discharged. Leak-subtractions are not performed but the leak is estimated by a hyper-polarisation voltage step.
The extracellular (bath) solution contains 144 mM NaCl, 2 mM CaCl2, 1 mM MgCl2, 10 mM HEPES (pH=7.4). […] By use of the program EqCal the concentration of free Ca^2+ have been calculated to 100 nM, the free Mg^2+ is 1 mM, and MgATP is 1.45 mM. […]
In general terms: Patch clamp records ionic current or voltage across a cell membrane.
As to `O=C(O)c1ccc(-c2ccc(COc3ccc(C(=O)O)c(O)c3)cc2)cc1` [Compound 3-17, 4′-(4-Carboxy-3-hydroxy-phenoxymethyl)-biphenyl-4-carboxylic acid], the “IK (%)” value was 115%. As for `Nc1cccc(-c2ccc(COc3ccc(C(=O)O)c(O)c3)cc2)c1` [Compound 3-11, 4-(3′-Amino-biphenyl-4-ylmethoxy)-2-hydroxy-benzoic acid], the “IK (%)” value was 115%.

The data set is the same for the next values; noted with them: HEK293 cell line stably expressing human KCNQ4; whole-cell patch clamp.
Turning to `O=C(O)c1ccc(-c2ccc(COc3ccc(C(=O)O)c(O)c3)cc2)cc1` [Compound 3-17, 4′-(4-Carboxy-3-hydroxy-phenoxymethyl)-biphenyl-4-carboxylic acid], the “activator or inhibitor of the KCNQ channel (increase or decrease in current)” value is listed as “activators”. On the same count and under the same terms, as for `Nc1cccc(-c2ccc(COc3ccc(C(=O)O)c(O)c3)cc2)c1` [Compound 3-11, 4-(3′-Amino-biphenyl-4-ylmethoxy)-2-hydroxy-benzoic acid], the entry is “activators”.

Tested on in a further data set: not given
Test: not given
Conditions: not given
One may read the melting point as the temperature, or range, at which the solid turns liquid. For the compound `O=C(O)c1ccc(-c2ccc(COc3ccc(C(=O)O)c(O)c3)cc2)cc1` [Compound 3-17, 4′-(4-Carboxy-3-hydroxy-phenoxymethyl)-biphenyl-4-carboxylic acid], the melting point was 279 to 284 °C (dec.).

As to `O=C(Nc1ccc(C(=O)O)c(O)c1)c1ccc(-c2ccccc2)cc1` [Compound 7-2, 4-[(Biphenyl-4-carbonyl)-amino]-2-hydroxy benzoic acid], the melting point is 266 °C (dec.). Take `O=C(O)c1ccc(OCc2cccc(-c3ccc4c(c3)OCCCO4)c2)cc1O` [Compound 3-35, 4-[3-(3,4-Dihydro-2H-benzo[b][1,4]dioxepin-7-yl)-benzyloxy]-2-hydroxy-benzoic acid]: the melting point is 188 to 192 °C (dec.). `O=C(O)c1ccc(OCc2ccc(-c3ccc4c(c3)OCO4)cc2)cc1O` [Compound 3-14, 4-[3′,4′-(Methylenedioxy)-biphenyl-4-ylmethoxy]-2-hydroxy-benzoic acid]: the melting point was 222 to 226 °C (dec.). Same read-out and setting: for `O=C(O)c1ccc(Nc2ccccc2[N+](=O)[O-])cc1O` [Compound 8-12, 2-Hydroxy-4-(2-nitro-phenylamino)-benzoic acid] the value was 190 °C (dec.); for `COc1cccc(-c2cccc(COc3ccc(C(=O)O)c(O)c3)c2)c1` [Compound 3-22, 2-Hydroxy-4-(3′-methoxy-biphenyl-3-ylmethoxy)-benzoic acid], 103 to 115 °C (dec.); for `O=C(O)c1ccc(OCc2ccc(-c3cccc(O)c3)cc2)cc1O` [Compound 3-8, 2-Hydroxy-4-(3′-hydroxy-biphenyl-4-ylmethoxy)-benzoic acid], 209 to 212 °C (dec.). Regarding `O=C(O)c1ccc(OCc2cccc(-c3ccc4ccccc4c3)c2)cc1O` [Compound 3-38, 2-Hydroxy-4-(3-naphthalen-2-yl-benzyloxy)-benzoic acid], the melting point is 190 to 194 °C (dec.). Still for that read-out and setting: as for `C=CCCCCOc1ccc(C(=O)O)c(O)c1` [Compound 1-7, 4-Hex-5-enyloxy-2-hydroxy-benzoic acid], the figure is 105 °C; as for `O=C(c1ccccc1)c1ccc(COc2ccc(C(=O)O)c(O)c2)cc1` [Compound 1-20, 4-(4-Benzoyl-benzyloxy)-2-hydroxy benzoic acid], 198 to 199 °C. As for `N#Cc1cccc(-c2cccc(COc3ccc(C(=O)O)c(O)c3)c2)c1` [Compound 3-41, 4-(3′-Cyano-biphenyl-3-ylmethoxy)-2-hydroxy-benzoic acid], the melting point was 155 to 170 °C (dec.). The same measure, in the same setting: for `O=C(O)c1ccc(OCCCN2CCCCC2)cc1O` [Compound 1-21, 2-Hydroxy-4-(3-piperidin-1-yl-propoxy)-benzoic acid] the value was 194 °C (dec.); for `CCCCCCCCOc1ccc(NC(=O)C(F)(F)F)c(O)c1` [Compound 9-1, 2,2,2-trifluoro-N-(2-hydroxy-4-octyloxy-phenyl)-acetamide], 114 to 116 °C; for `O=C(O)c1ccc(OCCC(O)CO)cc1O` (stereo not drawn) [Compound 2-2, 4-(3,4-Dihydroxybutoxy)-2-hydroxy-benzoic acid], 140 to 148 °C. For `O=C(O)c1ccc(OCc2cccc(-c3cccc4ccccc34)c2)cc1O` [Compound 3-37, 2-Hydroxy-4-(3-naphthalen-1-yl-benzyloxy)-benzoic acid], the melting point is 156 to 164 °C (dec.). On the same count and under the same terms, as for `Cc1noc(C)c1-c1cccc(COc2ccc(C(=O)O)c(O)c2)c1` [Compound 3-40, 4-[3-(3,5-Dimethyl-isoxazol-4-yl)-benzyloxy]-2-hydroxy-benzoic acid], the figure is 155 to 176 °C (dec.). On the same count and under the same terms, as for `O=C(Nc1ccc(OCc2ccc(F)cc2)cc1O)C(F)(F)F` [Compound 9-3, 2,2,2-trifluoro-N-[4-(4-fluoro-benzyloxy)-2-hydroxy-phenyl]-acetamide], the figure is 143 to 145 °C; as for `Cn1ccc2cc(-c3cccc(COc4ccc(C(=O)O)c(O)c4)c3)ccc21` [Compound 3-33, 2-Hydroxy-4-[3-(1-methyl-1H-indol-5-yl)-benzyloxy]-benzoic acid], 181 to 183 °C (dec.); as for `O=C(O)c1ccc(OCCCCC(O)CO)cc1O` (stereo not drawn) [Compound 2-3, 4-(5,6-Dihydroxhexoxy)-2-hydroxy-benzoic acid], 152 °C. Still for that read-out and setting: for `COc1ccc(-c2cccc(COc3ccc(C(=O)O)c(O)c3)c2)c(OC)c1` [Compound 3-42, 4-(2′,4′-Dimethoxy-biphenyl-3-ylmethoxy)-2-hydroxy-benzoic acid] the value was 176 to 178 °C (dec.). In turn, `C=CCCOc1ccc(C(=O)O)c(O)c1` [Compound 1-5, 4-But-3-enyloxy-2-hydroxy-benzoic acid] registered a melting point of 143 to 144 °C. Still for that read-out and setting: as for `Nc1ccc(Oc2ccc(C(=O)O)c(O)c2)cc1` [Compound 8-2, 4-(4-Amino-phenoxy)-2-hydroxy-benzoic acid], the figure is 187 to 188 °C; as for `O=C(O)c1ccc(OCc2ccc3ccccc3n2)cc1O` [Compound 1-19, 2-Hydroxy-4-(quinolin-2-ylmethoxy)-benzoic acid], 197 °C (dec.); as for `CN(C)S(=O)(=O)c1ccc(-c2cccc(COc3ccc(C(=O)O)c(O)c3)c2)cc1` [Compound 3-39, 4-(4′-Dimethylsulfamoyl-biphenyl-3-ylmethoxy)-2-hydroxy-benzoic acid], 196 to 204 °C (dec.). With `O=C(O)c1ccc(OC2CCOCC2)cc1O` [Compound 4-1, 2-hydroxy-4-(tetrahydro-pyran-4-yloxy)-benzoic acid], the melting point was 179 to 181 °C (dec.). Same read-out and setting: as for `COCCOCCOc1ccc(C(=O)O)c(O)c1` [Compound 1-4, 2-Hydroxy-4-[2-(2-methoxy-ethoxy]-ethoxy]-benzoic acid], the figure is 110 to 112 °C. Turning to `O=C(O)c1ccc(OCc2cccc(-c3cccnc3)c2)cc1O` [Compound 3-27, 2-Hydroxy-4-(3-pyridin-3-yl-benzyloxy)-benzoic acid], the melting point was 189 to 195 °C (dec.). On to `O=C(O)c1ccc(OCc2ccc(-c3ccccc3)cc2)cc1O` [Compound 1-16, 4-(Biphenyl-4-ylmethoxy)-2-hydroxy-benzoic acid], for which the melting point was 216 to 219 °C (dec.). The same measure, in the same setting: as for `Nc1cccc(-c2ccc(COc3ccc(C(=O)O)c(O)c3)cc2)c1` [Compound 3-11, 4-(3′-Amino-biphenyl-4-ylmethoxy)-2-hydroxy-benzoic acid], the figure is 207 to 210 °C (dec.).
